# Source: ChEMBL document CHEMBL1255411, “Tat pathway-mediated translocation of the sec pathway substrate protein MexA, an inner membrane component of the MexAB-OprM xenobiotic extrusion pump in Pseudomonas aeruginosa” (2010)
# Experiments:
# Type in all cases: functional
# [1] = tested on: Pseudomonas aeruginosa; experiment: Antibacterial activity against mexA deficient Pseudomonas aeruginosa TNP070
# [2] = tested on: Pseudomonas aeruginosa; experiment: Antibacterial activity against Pseudomonas aeruginosa PAO4290 harboring leu-10 argF10 aph-9004 FP(-)
# [3] = tested on: Pseudomonas aeruginosa; experiment: Antibacterial activity against tatC deficient Pseudomonas aeruginosa TNP080 transformant harboring pTatPlcMexA carrying entire tatC gene and the chimeric mexA gene
# [4] = tested on: Pseudomonas aeruginosa; experiment: Antibacterial activity against mexA deficient Pseudomonas aeruginosa TNP070 transformant harboring pMEXA1 carrying wild type mexA gene
# [5] = tested on: Pseudomonas aeruginosa; experiment: Antibacterial activity against tatC deficient Pseudomonas aeruginosa TNP080 transformant harboring pPlcMexA carrying chimeric mexA gene with plcH signal sequence
# [6] = tested on: Pseudomonas aeruginosa; experiment: Antibacterial activity against tatC deficient Pseudomonas aeruginosa TNP080 transformant harboring pMEXA1 carrying wild type mexA gene
# [7] = tested on: Pseudomonas aeruginosa; experiment: Antibacterial activity against tatC deficient Pseudomonas aeruginosa TNP080
# [8] = tested on: Pseudomonas aeruginosa; experiment: Antibacterial activity against mexA deficient Pseudomonas aeruginosa TNP070 transformant harboring pPlcMexA carrying chimeric mexA gene with plcH signal sequence
SMILES,MIC [1] [µg/mL],MIC [2] [µg/mL],MIC [3] [µg/mL],MIC [4] [µg/mL],MIC [5] [µg/mL],MIC [6] [µg/mL],MIC [7] [µg/mL],MIC [8] [µg/mL]
C[C@H]1[C@H](NC(=O)/C(=N\OC(C)(C)C(=O)O)c2csc(N)n2)C(=O)N1S(=O)(=O)O [AZTREONAM],0.25,4,2,2,0.25,2,0.13,2
O=C(N[C@H](CO)[C@H](O)c1ccc([N+](=O)[O-])cc1)C(Cl)Cl [CHLORAMPHENICOL],8,64,32,32,4,32,4,32
